Test system: 186277-243-T-J2-PDC complex spheroid growth
Assay: Anticancer human tumor 186277-243-T-J2-PDC patient-derived colon adenocarcinoma cell line growth inhibition [AhR]
Settings: for IC50: curve of first compound; for viability, T/C: stronger effect = lower value
From the text: Multicellular complex tumor spheroid response to aryl hydrocarbon receptor antagonists in combination with a variety of drugs and investigational agents in selected tumor cell lines
The current study was undertaken to assess response to aryl hydrocarbon receptor antagonists in combination with standard-of-care drugs and investigational agents in solid tumor complex spheroid models. Complex spheroids include a stromal component modeled by human endothelial cells (HUVEC) and fibroblasts modeled by human mesenchymal stem cells (MSCs). The concentration ranges selected for each drug and investigational agent were based upon clinically achievable concentrations if the clinical Cmax of the agent was known.
Compounds. The drugs and investigational agents: BAY 2416964 (NSC825713), GNF351 (NSC835774), CH-223191 (NSC835775), CPI-455 (NSC825282), aza-TdCyd (NSC777586), decitabine (NSC127716), belinostat (NSC758774), entinostat (NSC756642), pevonedistat (NSC761192), tazemetostat (NSC777109), talazoparib (NSC765396), olaparib (NSC753686), selinexor (NSC780203), nedisertib (M3814, NSC802822), bortezomib (NSC756655), venetoclax (NSC766270), doxorubicin (NSC123127), elimusertib (BAY189344, NSC800525), ceralasertib (AZD6738, NSC777638), TAK-243 (NSC785004), alisertib (NSC759677), etoposide (NSC141540), topotecan (NSC609699), eribulin (NSC707389), gemcitabine (NSC613327), carboplatin (NSC241240), cisplatin (NSC119875), and SN-38 (NSC673596) were obtained from the National Cancer Institute (NCI) Developmental Therapeutics Program Chemical Repository (32). The FDA-approved anticancer drug set is available from the Developmental Therapeutics Program at https://dtp.cancer.gov/organization/dscb/obtaining/available plates.htm. […] The stock solutions were prepared in dimethyl sulfoxide (DMSO, Sigma-Aldrich, St. Louis, MO, cat. D2650), except for the platinum compounds which were prepared in saline (Quality Biological, Gaithersburg, MD, cat. 114-055-101), at 800-fold the tested concentration and stored at -70 degrees C prior to their use. All drugs and investigational agents were tested over a range starting from a high concentration at or near the clinical Cmax and decreasing in half-log increments. If the clinical Cmax for an agent had not been determined, the highest concentration tested was 10 microM (Table 1).
Cell Culture. All cells were maintained in an incubator at 37 degrees C and 5% CO2 with 95% humidity. The PDC lines were cultured according to standard operating procedures established by the NCI PDMR (https://pdmr.cancer.gov). Briefly, all PDCs were thawed and cultured in Matrigel-coated flasks prepared with a working solution of 1X Ham's F-12 nutrient mix, without supplementation (Invitrogen, Waltham, MA, cat. 11765054), 100 U/mL penicillin-streptomycin (Invitrogen, cat. 15140122), and 2.5% Matrigel (Corning Inc., Corning, NY, cat. 354248) for the first three passages. All PDCs were cultured in complete DMEM/F-12 media containing advanced DMEM/F-12 (Invitrogen, cat. 12634028), 4.9% defined fetal bovine serum, heat inactivated (HyClone Laboratories Inc., Logan, UT, cat. SH30070.03HI), 389 ng/mL hydrocortisone (Sigma-Aldrich, cat. H4001), 9.7 ng/mL human EGF recombinant protein (Invitrogen, cat. PHG0313), 23.4 microg/mL adenine (Sigma-Aldrich, cat. A2786), 97.3 U/mL penicillin-streptomycin (Invitrogen, cat. 15140122), 1.9 mM L-glutamine (Invitrogen, cat. 25030081), and 9.7 microM Y-27632 dihydrochloride (Tocris Bioscience, Bristol, United Kingdom, cat. 1254). The PDCs were cultured in complete DMEM/F12 media without 10 microM Y-27632 dihydrochloride for at least two passages prior to the screen. The established cell lines NCI-H1341 and […] were cultured in DMEM/F-12, HEPES (Invitrogen, cat. 11330032), 5% defined fetal bovine serum (HyClone Laboratories Inc., cat. SH30070.03), ITS premix universal culture supplement [insulin (5 microg/mL), transferrin (5 microg/mL), and selenious acid (5 ng/mL)] […]

[1] = second compound 0.1 µM, first compound 0.00316 µM
[2] = second compound 0.1 µM, first compound 0.01 µM
[3] = second compound 0.1 µM, first compound 0.0316 µM
[4] = second compound 0.1 µM, first compound 0.1 µM
[5] = second compound 0.316 µM, first compound 0.00316 µM
[6] = second compound 0.316 µM, first compound 0.01 µM
[7] = second compound 0.316 µM, first compound 0.0316 µM
[8] = second compound 0.316 µM, first compound 0.1 µM
[9] = second compound 1 µM, first compound 0.00316 µM
[10] = second compound 1 µM, first compound 0.01 µM
[11] = second compound 1 µM, first compound 0.0316 µM
[12] = second compound 1 µM, first compound 0.1 µM
[13] = second compound 3.16 µM, first compound 0.00316 µM
[14] = second compound 3.16 µM, first compound 0.01 µM
[15] = second compound 3.16 µM, first compound 0.0316 µM
[16] = second compound 3.16 µM, first compound 0.1 µM
[17] = second compound 10 µM, first compound 0.00316 µM
[18] = second compound 10 µM, first compound 0.01 µM
[19] = second compound 10 µM, first compound 0.0316 µM
[20] = second compound 10 µM, first compound 0.1 µM
[21] = second compound 0.1 µM, first compound 0.316 µM
[22] = second compound 0.1 µM, first compound 1 µM
[23] = second compound 0.316 µM, first compound 0.316 µM
[24] = second compound 0.316 µM, first compound 1 µM
[25] = second compound 1 µM, first compound 0.316 µM
[26] = second compound 1 µM, first compound 1 µM
[27] = second compound 3.16 µM, first compound 0.316 µM
[28] = second compound 3.16 µM, first compound 1 µM
[29] = second compound 10 µM, first compound 0.316 µM
[30] = second compound 10 µM, first compound 1 µM
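Also: spheroids exposed to compounds for seven days before the viability read.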
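For viability, T/C in this document: luminescent signal used as a stand-in for viable cell amount; 100% = DMSO vehicle control wells.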

Cn1ncnc1C1c2n[nH]c(=O)c3cc(F)cc(c23)NC1c1ccc(F)cc1 (stereo not given) + Cc1ccccc1N=Nc1ccc(NC(=O)c2ccnn2C)c(C)c1
IC50 (second compound 0.1 µM): > 0.1 µM | IC50 (second compound 0.316 µM): > 0.1 µM | IC50 (second compound 1 µM): > 0.1 µM | IC50 (second compound 3.16 µM): > 0.1 µM | IC50 (second compound 10 µM): > 0.1 µM | viability, T/C (second compound 0.1 µM, first compound 0.000316 µM): 107% | viability, T/C (second compound 0.1 µM, first compound 0.001 µM): 101% | viability, T/C [1]: 107% | viability, T/C [2]: 93.2% | viability, T/C [3]: 108% | viability, T/C [4]: 107% | viability, T/C (second compound 0.316 µM, first compound 0.000316 µM): 98.8% | viability, T/C (second compound 0.316 µM, first compound 0.001 µM): 113% | viability, T/C [5]: 101% | viability, T/C [6]: 104% | viability, T/C [7]: 107% | viability, T/C [8]: 103% | viability, T/C (second compound 1 µM, first compound 0.000316 µM): 109% | viability, T/C (second compound 1 µM, first compound 0.001 µM): 98.3% | viability, T/C [9]: 109% | viability, T/C [10]: 116% | viability, T/C [11]: 105% | viability, T/C [12]: 118% | viability, T/C (second compound 3.16 µM, first compound 0.000316 µM): 101% | viability, T/C (second compound 3.16 µM, first compound 0.001 µM): 101% | viability, T/C [13]: 113% | viability, T/C [14]: 105% | viability, T/C [15]: 119% | viability, T/C [16]: 112% | viability, T/C (second compound 10 µM, first compound 0.000316 µM): 95.4% | viability, T/C (second compound 10 µM, first compound 0.001 µM): 96.7% | viability, T/C [17]: 101% | viability, T/C [18]: 105% | viability, T/C [19]: 95.3% | viability, T/C [20]: 98.7%

Nc1ncn(C2CC(O)C(CO)O2)c(=O)n1 (stereo not given) + CC(CO)NC(=O)c1cc(-c2ccc(Cl)cc2)nn(-c2cnn(C)c2)c1=O
IC50 (second compound 0.1 µM): > 1 µM | IC50 (second compound 0.316 µM): > 1 µM | IC50 (second compound 1 µM): > 1 µM | IC50 (second compound 3.16 µM): > 1 µM | IC50 (second compound 10 µM): > 1 µM | viability, T/C [1]: 110% | viability, T/C [2]: 103% | viability, T/C [3]: 89.3% | viability, T/C [4]: 85.1% | viability, T/C [21]: 64.5% | viability, T/C [22]: 52.1% | viability, T/C [5]: 92% | viability, T/C [6]: 82.3% | viability, T/C [7]: 85.8% | viability, T/C [8]: 84.9% | viability, T/C [23]: 63.6% | viability, T/C [24]: 52.8% | viability, T/C [9]: 84.6% | viability, T/C [10]: 97.6% | viability, T/C [11]: 96.1% | viability, T/C [12]: 80.9% | viability, T/C [25]: 66.2% | viability, T/C [26]: 55.2% | viability, T/C [13]: 91.5% | viability, T/C [14]: 95.1% | viability, T/C [15]: 94.3% | viability, T/C [16]: 82.5% | viability, T/C [27]: 66.8% | viability, T/C [28]: 59.4% | viability, T/C [17]: 90.3% | viability, T/C [18]: 81.2% | viability, T/C [19]: 90.9% | viability, T/C [20]: 79% | viability, T/C [29]: 63.1% | viability, T/C [30]: 51.7%

COc1cc(C2c3cc4c(cc3C(OC3OC5COC(C)OC5C(O)C3O)C3COC(=O)C23)OCO4)cc(OC)c1O (stereo not given) + Cc1cncc(-c2nc(NCCc3c[nH]c4ccccc34)c3ncn(C(C)C)c3n2)c1
IC50 (second compound 0.1 µM): 2.13 µM | IC50 (second compound 0.316 µM): 1.44 µM | IC50 (second compound 1 µM): 1.6 µM | IC50 (second compound 3.16 µM): 1.45 µM | IC50 (second compound 10 µM): 0.0485 µM | viability, T/C [3]: 119% | viability, T/C [4]: 111% | viability, T/C [21]: 113% | viability, T/C [22]: 58.7% | viability, T/C (second compound 0.1 µM, first compound 3.16 µM): 52% | viability, T/C (second compound 0.1 µM, first compound 10 µM): 21.9% | viability, T/C [7]: 119% | viability, T/C [8]: 124% | viability, T/C [23]: 107% | viability, T/C [24]: 53.4% | viability, T/C (second compound 0.316 µM, first compound 3.16 µM): 48% | viability, T/C (second compound 0.316 µM, first compound 10 µM): 21.1% | viability, T/C [11]: 110% | viability, T/C [12]: 149% | viability, T/C [25]: 99.8% | viability, T/C [26]: 59.5% | viability, T/C (second compound 1 µM, first compound 3.16 µM): 44.6% | viability, T/C (second compound 1 µM, first compound 10 µM): 19.9% | viability, T/C [15]: 127% | viability, T/C [16]: 147% | viability, T/C [27]: 89.3% | viability, T/C [28]: 59.4% | viability, T/C (second compound 3.16 µM, first compound 3.16 µM): 42.7% | viability, T/C (second compound 3.16 µM, first compound 10 µM): 19.9% | viability, T/C [19]: 55% | viability, T/C [20]: 44.5% | viability, T/C [29]: 20.8% | viability, T/C [30]: 24.3% | viability, T/C (second compound 10 µM, first compound 3.16 µM): 22.9% | viability, T/C (second compound 10 µM, first compound 10 µM): 9.36%

From PubChem BioAssay AID1918991 (Molecular Pharmacology Branch, DTP, NCI, 2023)
